Source: US8183342B2, “Method of treating chemotherapy-induced thrombocytopenia” (Case Western Reserve University, priority 2007, dated 2012)
“Also recorded” adds a separate entry of the source. Where a SMILES comes first, the peptide text is derived from it. Where no end group is shown, it is not given here. The star is where a group is joined. Cbz = O=C(OCc1ccccc1)*; CH2F = FC*

Assays:
[1] = test system: platelet number in mouse peripheral blood; test: Platelet number in mouse peripheral blood after Etoposide; assay type: in vivo, C57BL/6J mice; details: Etoposide 150 mg/kg i.p., for 48 hrs
Protocol: Percentage of platelets in C57BL/6J mice compared to before treatment (100%). […] The statistical significance was determine by an unpaired student t test, *P<0.05, **P<0.01, ***, P<0.001.
Mouse blood (50-100 micro 1) was collected by heparin-coated capillary tube from tail, and the samples were incubated at room temperature for 1 hr before blood cell analysis using HEMA VET blood cell counter (Drew Scientific Inc. Oxford, Conn.). Each blood sample was measured twice, and the mean value of two measurements was used as one sample data (n=1).

cell membrane = test: Cell membrane permeability and retention of peptides in cells (description); assay type: cell-based; details: for cell membrane permeability: need of a cell delivery system
[2] = test system: primary cultured mouse megakaryocytes; test: Platelet formation in vitro (Integrin αIIB positive platelet like particles, flow cytometry); assay type: cell-based; details: 48 h; VPTLK 200 μM; Z-VAD-fmk 200 and 400 μM; FIG. 5B
Protocol: After the pre-incubation with the peptides, 1 mM EDTA and 50 ng/ml prostaglandin E1 (Sigma) dissolved in ethanol were added to the cell culture before the centrifugation (700 g) at room temperature (RT) for 10 min. The platelets were washed with 300 μl of tyrodes buffer (pH 7.4) containing 2.5 mg/ml BSA and 1 mg/ml glucose. Then 2 μl of anti CD16/anti CD32 (BD Phaminogen™) was added to the platelets. The platelets were incubated at RT for 10 min. The platelets were divided into 3 sets, and 2 μl of rat IgG1 κ phycoerythrin (PE) labeled isotype control (Pharmingen) was added to one sample, and 2 μl of PE labeled antibody of intregin αIIB PE (Santa Cruz) was added to the other two samples. The platelets were incubated at RT for 30 min. Finally, 5 μl of Flow-Count™ Fluorospheres (Beackman-Coulter™) was added to the sample as platelet size marker. The platelets were detected with a FACScan flow cytometer system (Becton Dickinson; BD LSRII) using cellquest software. Each point in the figures showing percent apoptosis represents the mean±SEM of three experiments.

[3] = molecular target: T1, interaction of Ku70 and Bax (Homo sapiens, UniProt Q07812); test: Inhibition of the interaction of Ku70 and Bax in cell lysates; assay type: binding; details: negative controls; lysates from human cultured cells
T1 construct: lysates prepared from human cultured cells (HeLa cells and human kidney epithelial 293 cells); endogenous in cells; host or cells: HeLa cells; human kidney epithelial 293 cells
T1 sequence (Q07812 whole entry): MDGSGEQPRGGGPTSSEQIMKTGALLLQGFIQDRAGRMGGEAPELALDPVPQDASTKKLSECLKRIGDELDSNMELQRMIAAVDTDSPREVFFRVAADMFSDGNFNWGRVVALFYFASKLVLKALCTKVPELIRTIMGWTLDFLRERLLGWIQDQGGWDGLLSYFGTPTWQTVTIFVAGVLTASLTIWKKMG
Protocol: The Bax-binding domain in Ku70 comprises 6 amino acids (VPMLKE, SEQ ID NO: 1). This peptide (Ku70 Peptide) inhibits the interaction of Ku70 and Bax at the concentration of 20-80 μM in lysates prepared from human cultured cells (HeLa cells and human kidney epithelial 293 cells).

[4] = Preliminary toxicity study in mice; assay type: in vivo; details: 166.5 mg/kg i.p. and 16.5 mg/kg i.v.t.
Protocol: Importantly, we also obtained a preliminary result showing that BIP pre-treatment attenuated Etoposide-induced platelet decrease in mouse model. To develop the technology protecting megakaryocytes from chemotherapy, further extensive animal studies are needed. […] We examined doses of 166.5 mg/kg by i.p. and 16.5 mg/kg by i.v.t. […] The dose of 166.5 mg/kg is expected to achieve 300 μM of BIP in whole mouse body, if a mouse body is assumed to be filled with water. Probably, much less amount of BIP is sufficient to achieve effective doses (50-400 μM) (Sawada, M., P. Hayes, and S. Matsuyama, Cytoprotective membrane-permeable peptides designed from the Bax-binding domain of Ku70. Nat Cell Biol, 2003. 5(4): p. 352-7; Yoshida, T., et al., Bax-inhibiting peptide derived from mouse and rat Ku70. Biochem Biophys Res Commun, 2004. 321(4): p. 961-6; Yu, L. Y., et al., GDNF-deprived sympathetic neurons die via a novel nonmitochondrial pathway. J Cell Biol, 2003. 163(5): p. 987-97; Qin, Q., K. Patil, and S. C. Sharma, The role of Bax-inhibiting peptide in retinal ganglion cell apoptosis after optic nerve transection. Neurosci Lett, 2004. 372(1-2): p. 17-21) in blood or a specific tissue.

For `COc1cc([C@@H]2c3cc4c(cc3[C@@H](O[C@@H]3O[C@@H]5CO[C@@H](C)O[C@H]5[C@H](O)[C@H]3O)[C@H]3COC(=O)[C@H]23)OCO4)cc(OC)c1O` [Etoposide], the “platelet count in the peripheral blood after Etoposide alone” value [1] was “slight decrease of platelet count”.

With `CSCC[C@H](NC(=O)[C@@H]1CCCN1)C(=O)N[C@@H](CC(C)C)C(=O)N[C@@H](CCCCN)C(=O)O` [PMLK] (H-PMLK-OH; N-terminus and C-terminus assumed) the “retention in the cell” value (cell membrane) was “not retained in the cell” and the cell membrane permeability (cell membrane) was “cell membrane permeable”.

In the case of `COC(=O)CC(NC(=O)C(C)NC(=O)C(NC(=O)OCc1ccccc1)C(C)C)C(=O)CF` (stereo not drawn) [Z-VAD-fmk, Benzyloxycarbonyl-Val-Ala-Asp (OMe) fluoromethylketone] (Cbz-Val-Ala-Asp(OMe)-CH2F; configuration not given here), the “platelet like particles formation” value [2] is reported as “slightly decreased platelet like particles formation”.

For “Ku70 Peptide NC: the immediate next six amino acid sequence of Ku70, negative control (LGKFTV; UniProt P12956 573-578, looked up, fragment)”, the “effect on the interaction of Ku70 and Bax” value [3] was “did not affect the interaction of Ku70 and Bax”.

In the case of PMLKE [PMLKE], the cell membrane permeability (cell membrane) is reported as “cell membrane permeable”.

For VPALR [VPALR], the cell membrane permeability (cell membrane) was “cell membrane permeable”.

For VPMLK [VPMLK], the cell membrane permeability (cell membrane) was “cell membrane permeable”.

For VPMLKE [VPMLKE], the cell membrane permeability (cell membrane) was “a cell delivery system, such as liposomes as in the case of VPMLKE”.

In the case of VPTLK [VPTLK], the “survival after the injection” value [4] is reported as “more than 3 months” and the toxicity in mice ([4]; preliminary study, listed as BIP) is reported as “did not show any toxicity; also recorded: did not show any sign of illness”.
